Several values for one entry are separate records, joined by “and”; a condition that tells them apart may be missing. Equal values may be shown once. Where a name gives a salt, the structure may show the parent alone. Read-outs that look alike come from different tables or passages of the source.
Key:
[1] = test system: SUDHL10; assay: Anti-proliferative effect (CellTiter-Glo, 72 h), SUDHL10; format: cell-based; conditions: SUDHL10 cells, antiproliferation, 72 h incubation, median, read-out: Antiproli SUDHL10 [M] (median)
Method in brief: (§1)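 Cells plated and incubated with compounds for 72 h at 37 °C, with a parallel day 0 reference plate for time-zero signal. Viability read by CellTiter-Glo luminescence after 10 min, measured identically on the day 0 and 72 h plates.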

[2] = test system: A2780; assay: Anti-proliferative effect (CellTiter-Glo, 72 h), A2780; format: cell-based; conditions: A2780 cells, median, read-out: IC50 antiproliferation assay A2780 [M] (median)
Method in brief: as §1

[3] = target: T1, BCL-2 (Homo sapiens, UniProt P10415); assay: Protein-protein interaction assay BCL-2/Bad BH3 peptide (BCL-2 assay), TR-FRET; format: binding; conditions: His-BCL-2 / Bad BH3-derived peptide, median
T1 construct: BCL-2 (amino acids 1-211, C-terminal fused to a hexahistidine (6×His) tag); purchased BPS Bioscience (San Diego, Calif., USA); host or cells: E. coli
Experimental: Protein-Protein Interaction Assay: BCL-2/Bad BH3 Peptide (BCL-2 Assay)
The dose-dependent inhibition by the compounds described in this invention of the interaction between BCL-2 and the BH3 domain of Bad (both human) was determined using a steady state binding competition assay with time-resolved fluorescence energy transfer (TR-FRET) readout. For that purpose BCL-2 (amino acids 1-211, C-terminal fused to a hexahistidine (6×His) tag and a synthetic Bad BH3-derived peptide of sequence Biotin-PEG2-PEG2-NLWAAQRYGRELRR-Nle-SDEFVDSFKK-amide (SEQ ID NO: 2) served as protein receptor and tracer ligand respectively. The recombinant BCL-2 protein (expressed in E. coli) was purchased from BPS Bioscience (San Diego, Calif., USA). The Bad BH3-derived peptide can be obtained from e.g. Biosyntan (Berlin, Germany).
In the assay 11 different concentrations of each compound (0.1 nM, 0.33 nM, 1.1 nM, 3.8 nM. 13 nM, 44 nM, 0.15 μM, 0.51 μM, 1.7 μM, 5.9 μM and 20 μM) were typically measured as duplicates in the same microtiter plate. For that, 100-fold concentrated DMSO solutions were prepared by serial dilutions (1:3.4) of a 2 mM stock solution in a clear, 384-well microtiter plate (Greiner Bio-One, Frickenhausen, Germany). From there, 50 nl were transferred in a dark test plate (Greiner Bio-One. Frickenhausen, Germany). The assay was initiated by addition of 2 μl of a 2,5-fold concentrated His-BCL-2 solution (usually for a 1 nM end concentration in 5 μl reaction volume) in aqueous assay buffer [50 mM Tris/HCl pH 7, 100 mM sodium chloride (NaCl), 50 mM potassium fluoride (KF), 0.005% Tween-20, 2 mM DTT, 0.1% bovine gamma globulin (BGG)] to the compounds in the assay plate. This was followed by a 10-minute incubation step at 22° C. for pre-equilibration of the putative complex between His-BCL-2 and the compounds.
The mixture was incubated in the dark for one hour at 22° C. and then overnight at 4° C. The formation of BCL-2/Bad complexes was determined by measuring the resonance energy transfer of the anti-His-Eu-cryptate antibody to the streptavidin-XL665 present in the reaction. For that purpose, the fluorescence emission at 620 nm and 665 nm after excitation at 330-350 nm was measured in a TR-FRET measuring instrument, for instance a Rubystar or a Pherastar (both from BMG Lab Technologies. Offenburg, Germany) or a Viewlux (Perkin-Elmer). The ratio of the emission at 665 nm and at 622 nm was used as indicator of the amount of BCL-2/Bad complexes present.
The resulting data (ratio) were normalized, taking 0% inhibition as the mean value of control measurements (usually 32 data points) where all reagents were included. In this case 50 nl DMSO were used instead of compounds. A 100% inhibition corresponded to the mean value of control measurements (usually 32 data points) where all reagents except BCL-2 were included. IC50 values were determined by regression analysis based on a 4 parameter equation (minimum, maximum, IC50, Hill; Y=Max+(Min−Max)/(1+(X/IC50)^Hill) using the Screener Software (Genedata).

[4] = test system: SUDHL5; assay: Anti-proliferative effect (CellTiter-Glo, 72 h), SUDHL5; format: cell-based; conditions: SUDHL5 cells, antiproliferation, 72 h incubation, median, read-out: Antiproli SUDHL5 [M] (median)
Method in brief: as §1

[5] = test system: SUDHL5; assay: Induction of caspase-3/7 activity (Caspase-Glo 3/7), SUDHL5; format: cell-based; conditions: caspase-3/7 induction, SUDHL5 cells, 3 h treatment, median
Method in brief: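 DLBCL lines SUDHL5 and SUDHL10 treated with compounds for 3 h at 37 °C; caspase-3/7 activity read by Caspase-Glo 3/7 luminescence. Medium-only background subtracted; EC50 fitted with bottom fixed at 1 and top fixed at the reference compound's maximal induction.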

T1 sequence (P10415 1-211): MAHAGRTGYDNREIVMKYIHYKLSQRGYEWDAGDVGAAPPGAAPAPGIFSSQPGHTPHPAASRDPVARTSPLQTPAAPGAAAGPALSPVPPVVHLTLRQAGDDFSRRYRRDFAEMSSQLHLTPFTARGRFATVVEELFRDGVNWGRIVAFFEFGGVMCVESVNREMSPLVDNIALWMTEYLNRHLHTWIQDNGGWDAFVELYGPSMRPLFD

Structure (SMILES) | IC50 ([1]; Homo sapiens, SU-DHL10, 72 h) | IC50 [2] | IC50 [3] | IC50 [4] | EC50 [5] | IC50 [1] | IC50 ([2]; Homo sapiens, A2780, 72 h) | IC50 ([4]; Homo sapiens, SU-DHL-5, 72 h) | EC50 ([5]; Homo sapiens, SU-DHL-5, 3 h)
Cc1nn(C)c2c1-c1cccc3c(CCCOc4cccc5cc(F)ccc45)c(C(=O)O)n(c13)CCCCOC2 (single isomer, unassigned; enantiomer 1) [Example 019, 7-{3-[(6-fluoronaphthalen-1-yl)oxy]propyl}-1,3-dimethyl-1,10,11,12,13,15-hexahydropyrazolo[4′,3′:9,10][1,6]oxazacycloundecino[8,7,6-hi]indole-8-carboxylic Acid-N-ethylethanamine Salt (Enantiomer 1)] | 4.45e-06 M | > 3.3e-05 M | > 20 µM | 3.65e-06 M | 1.52 µM | – | – | – | –
COCCn1nc2c(c1C)-c1cccc3c(CCCOc4cccc5ccccc45)c(C(=O)O)n(c13)CCCCOC2 (single isomer, unassigned; enantiomer 1) [Example 107, 2-(2-methoxyethyl)-3-methyl-7-[3-(naphthalen-1-yloxy)propyl]-2,10,11,12,13,15-hexahydropyrazolo[4′,3′:9,10][1,6]oxazacycloundecino[8,7,6-hi]indole-8-carboxylic acid-N-ethylethanamine Salt (Enantiomer 1)] | – | > 3.3e-05 M and 2.08e-05 M | > 20 µM | 3.82e-06 M | 1.47 µM | 5.32e-06 M | – | – | –
CCc1c2c(nn1C)CN(C)CCCn1c(C(=O)O)c(CCCOc3cccc4ccccc34)c3ccc(C)c-2c31 (racemic) [Example 144, (rac)-11-ethyl-7,10,12-trimethyl-1-[3-(1-naphthyloxy)propyl]-4,5,6,7,8,10-hexahydropyrazolo[3′,4′:7,8][1,5]diazecino[9,10,1-hi]indole-2-carboxylic Acid] | 5.89e-06 M | – | > 20 µM | – | – | – | 1.17e-05 M | 1.33e-06 M | 2.85 µM
Cc1ccc2c(CCCOc3cccc4ccccc34)c(C(=O)O)n3c2c1-c1c(nn(C)c1C)CN(C)CCC3 (single isomer, unassigned; enantiomer 1) [Example 073, 7,10,11,12-tetramethyl-1-[3-(naphthalen-1-yloxy)propyl]-4,5,6,7,8,10-hexahydropyrazolo[3′,4′:7,8][1,5]diazecino[9,10,1-hi]indole-2-carboxylic Acid (Enantiomer 1)] | 6.86e-06 M | – | > 20 µM | 3.23e-06 M | 2.12 µM | – | 1.4e-05 M | – | –
CCc1c2c(nn1C)COCCCCn1c(C(=O)O)c(CCCOc3cccc4ccccc34)c3cccc-2c31 (single isomer, unassigned; enantiomer 1) [Example 148, 3-Ethyl-2-methyl-7-[3-(1-naphthyloxy)propyl]-2,10,11,12,13,15-hexahydropyrazolo[4′,3′:9,10][1,6]oxazacycloundecino[8,7,6-hi]indole-8-carboxylic acid-N-ethylethanamine Salt (Enantiomer 1)] | 5.87e-06 M | – | > 20 µM | 2.56e-06 M | 0.881 µM | – | 2e-05 M | – | –

Continued, values first:

IC50 ([1]; Homo sapiens, SU-DHL10, 72 h) | IC50 [2] | IC50 [3] | IC50 [4] | EC50 [5] | IC50 [1] | IC50 ([2]; Homo sapiens, A2780, 72 h) | IC50 ([4]; Homo sapiens, SU-DHL-5, 72 h) | EC50 ([5]; Homo sapiens, SU-DHL-5, 3 h) | Structure (SMILES)
– | – | > 20 µM | 1.36e-06 M | 1.17 µM | 1.56e-06 M | 7.24e-06 M | – | – | CN1CCCn2c(C(=O)O)c(CCCOc3cccc4ccccc34)c3cccc(c32)-c2c(COc3ccc(N4CCN(S(=O)(=O)N(C)C)CC4)cc3)nn(C)c2C1 (single isomer, unassigned; enantiomer 1) [Example 1-15, (+)-11-({4-[4-(dimethylsulfamoyl)piperazin-1-yl]phenoxy}methyl)-7,9-dimethyl-1-[3-(naphthalen-1-yloxy)propyl]-4,5,6,7,8,9-hexahydropyrazolo[3′,4′:7,8][1,5]diazecino[9,10,1-hi]indole-2-carboxylic Acid (Enantiomer 1)]
– | – | 2.34 µM | 9.89e-07 M | 0.776 µM | 8.61e-07 M | 7.08e-06 M | – | – | CN1CCCn2c(C(=O)O)c(CCCOc3cccc4ccccc34)c3cccc(c32)-c2c(COc3ccc(N4CCN(S(C)(=O)=O)CC4)cc3)nn(C)c2C1 (single isomer, unassigned; enantiomer 1) [Example 1-46, (+)-7,9-dimethyl-11-({4-[4-(methylsulfonyl)piperazin-1-yl]phenoxy}methyl)-1-[3-(naphthalen-1-yloxy)propyl]-4,5,6,7,8,9-hexahydropyrazolo[3′,4′:7,8][1,5]diazecino[9,10,1-hi]indole-2-carboxylic Acid (Enantiomer 1)]
1.17e-05 M | – | > 20 µM | – | 8.87 µM | – | 1.91e-05 M | 9.62e-06 M | – | CC(C)OCc1nn(C)c2c1-c1cccc3c(CCCOc4cccc5ccccc45)c(C(=O)O)n(c13)CCCCN(C)C2 (single isomer, unassigned) [Example 1-74, 1,14-dimethyl-7-[3-(naphthalen-1-yloxy)propyl]-3-[(propan-2-yloxy)methyl]-10,11,12,13,14,15-hexahydro-1H-pyrazolo[3′,4′:8,9][1,6]diazacycloundecino[10,11,1-hi]indole-8-carboxylic Acid]
– | 1.19e-05 M | > 20 µM | 1.26e-06 M | 0.486 µM | 1.35e-06 M | – | – | – | Cn1nc(COc2ccc(N3CCN(S(C)(=O)=O)CC3)cc2)c2c1COCCCCn1c(C(=O)O)c(CCCOc3cccc4ccccc34)c3cccc-2c31 (single isomer, unassigned; enantiomer 2) [Example 1-10, 1-methyl-3-({4-[4-(methylsulfonyl)piperazin-1-yl]phenoxy}methyl)-7-[3-(naphthalen-1-yloxy)propyl]-1,10,11,12,13,15-hexahydropyrazolo[4′,3′:9,10][1,6]oxazacycloundecino[8,7,6-hi]indole-8-carboxylic acid (enantiomer 2)]
– | – | > 20 µM | 2.54e-06 M | 2.44 µM | 3e-06 M | 3.02e-05 M | – | – | Cc1c2c(nn1C)COCCCCn1c(C(=O)O)c(CCCOc3cccc4ccccc34)c3cccc-2c31 (single isomer, unassigned; enantiomer 1) [Example 1-37, (+)-2,3-dimethyl-7-[3-(naphthalen-1-yloxy)propyl]-2,10,11,12,13,15-hexahydropyrazolo[4′,3′:9,10][1,6]oxazacycloundecino[8,7,6-hi]indole-8-carboxylic Acid (Enantiomer 1)]

Reference: patent publication US10981932B2, “Macrocyclic indole derivatives” (Bayer Aktiengesellschaft, priority 2016, dated 2021)
